Assay results taken from EP0187355A1, “Process for preparing beta-lactam antibiotics” (E.R. Squibb & Sons, Inc., priority 1981, dated 1982).
Structures can show the parent of a compound that is named as a salt.

Experiments:
Test in all cases: MIC, agar dilution
Format in all cases: cell-based
Proteus vulgaris, 9416 = settings: K-10 agar, 10^4 CFU, 37°C, 18 hours, read-out: M.I.C.
Procedure, shortened: (§1)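 Inhibition of growth on compound-containing K-10 agar (final 100 to 0.05 µg/ml, twofold series) defined the endpoint, scored after 18 h at 37°C. Spots carried 10^4 CFU, with drug-free growth control plates inoculated before and after test plates.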

[1] = tested on: Klebsiella pneumoniae, 9527; settings: Klebsiella pneumoniae, 9527, 18 h, K-10 agar, 10^4 CFU, 37°C, read-out: M.I.C.
Procedure, shortened: as §1

[2] = tested on: Klebsiella aerogenes, 10440; settings: K-10 agar, 10^4 CFU, 37°C, 18 hours, read-out: M.I.C.
Procedure, shortened: as §1

[3] = tested on: Streptococcus faecalis, 9011; settings: Enterococcus faecalis; Streptococcus faecalis, 9011; K-10 agar, 10^4 CFU, 37°C, 18 hours; read-out: M.I.C.
Procedure, shortened: as §1

Escherichia coli, 10896 = settings: K-10 agar, 10^4 CFU, 37°C, 18 hours
Procedure, shortened: as §1

[4] = tested on: Enterobacter aerogenes, 10078; settings: Klebsiella aerogenes, 10078, 18 h, Enterobacter aerogenes, 10078; K-10 agar, 10^4 CFU, 37°C, 18 hours; read-out: M.I.C.
Procedure, shortened: as §1

Proteus mirabilis, 3855 = settings: Proteus mirabilis, 3855, 18 h, K-10 agar, 10^4 CFU, 37°C, read-out: M.I.C.
Procedure, shortened: as §1

Escherichia coli, 10909 = settings: K-10 agar, 10^4 CFU, 37°C, 18 hours
Procedure, shortened: as §1

[5] = tested on: Staphylococcus aureus, 1276; settings: Staphylococcus aureus, 1276; K-10 agar, 10^4 CFU, 37°C, 18 hours; read-out: M.I.C.
Procedure, shortened: as §1

[6] = tested on: Pseudomonas aeruginosa, 8329; settings: K-10 agar, 10^4 CFU, 37°C, 18 hours, read-out: M.I.C.
Procedure, shortened: as §1

Escherichia coli, 10857 = settings: Escherichia coli, 10857, 18 h, K-10 agar, 10^4 CFU, 37°C
Procedure, shortened: as §1

Escherichia coli, 8294 = settings: Escherichia coli, 8294, 18 h, K-10 agar, 10^4 CFU, 37°C
Procedure, shortened: as §1

[7] = tested on: Acinetobacter calcoaceticus, 8333; settings: Acinetobacter calcoaceticus, 8333, 18 h, K-10 agar, 10^4 CFU, 37°C, read-out: M.I.C.
Procedure, shortened: as §1

[8] = tested on: Staphylococcus aureus, 2399; settings: Staphylococcus aureus, 2399, 18 h, Staphylococcus aureus, 2399; K-10 agar, 10^4 CFU, 37°C, 18 hours; read-out: M.I.C.
Procedure, shortened: as §1

Proteus rettgeri, 8479 = settings: Providencia rettgeri, K-10 agar, 10^4 CFU, 37°C, 18 hours, read-out: M.I.C.
Procedure, shortened: as §1

[9] = tested on: Staphylococcus aureus, 2400; settings: Staphylococcus aureus, 2400; K-10 agar, 10^4 CFU, 37°C, 18 hours; read-out: M.I.C.
Procedure, shortened: as §1

[10] = tested on: Pseudomonas aeruginosa, 9545; settings: Pseudomonas aeruginosa, 9545, 18 h, K-10 agar, 10^4 CFU, 37°C, read-out: M.I.C.
Procedure, shortened: as §1

[11] = tested on: Citrobacter freundii, 9518; settings: K-10 agar, 10^4 CFU, 37°C, 18 hours, read-out: M.I.C.
Procedure, shortened: as §1

Salmonella typhosa, 1195 = settings: Salmonella enterica, TYPHOSA, 18 h, K-10 agar, 10^4 CFU, 37°C
Procedure, shortened: as §1

[12] = tested on: Staphylococcus aureus, 10165; settings: Staphylococcus aureus, 10165; K-10 agar, 10^4 CFU, 37°C, 18 hours; read-out: M.I.C.
Procedure, shortened: as §1

[13] = tested on: Serratia marcescens, 9783; settings: Serratia marcescens, 9783, 18 h, K-10 agar, 10^4 CFU, 37°C, read-out: M.I.C.
Procedure, shortened: as §1

Shigella sonnei, 8449 = settings: Shigella sonnei, 8449, 18 h, K-10 agar, 10^4 CFU, 37°C
Procedure, shortened: as §1

[14] = tested on: Enterobacter cloacae, 8236; settings: Enterobacter cloacae, 8236, 18 h, K-10 agar, 10^4 CFU, 37°C
Procedure, shortened: (§2)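 Broth cultures grown 18-20 h at 37°C, diluted 1:100 in K-10 broth, applied by multipoint inoculator at 10^4 CFU onto K-10 agar holding twofold compound dilutions, 100 to 0.05 µg/ml final. MIC taken as lowest concentration inhibiting growth.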

Micrococcus luteus, 2495 = settings: Micrococcus luteus, 2495, 18 h, K-10 agar, 10^4 CFU, 37°C, read-out: M.I.C.
Procedure, shortened: as §2

[15] = tested on: Streptococcus agalactiae, 9287; settings: Streptococcus agalactiae, 9287, 18 h, K-10 agar, 10^4 CFU, 37°C, read-out: M.I.C.
Procedure, shortened: as §2

Row | SMILES | MIC (Proteus vulgaris, 9416) | MIC [1] | MIC [2] | MIC [3] | MIC (Escherichia coli, 10896) | MIC [4] | MIC (Proteus mirabilis, 3855) | MIC (Escherichia coli, 10909) | MIC [5] | MIC [6] | MIC (Escherichia coli, 10857) | MIC (Escherichia coli, 8294) | MIC [7] | MIC [8] | MIC (Proteus rettgeri, 8479) | MIC [9] | MIC [10] | MIC [11] | MIC (Salmonella typhosa, 1195) | MIC [12] | further results
1 | C[C@H]1[C@H](NC(=O)/C(=N\OC(C)(C)C(=O)OCc2ccc([N+](=O)[O-])cc2)c2csc(N)n2)C(=O)N1S(=O)(=O)O [Example 15, [3S-[3α(Z),4β]]-3-[[(2-Amino-4-thiazolyl)[[1,1-dimethyl-2-[(4-nitrophenyl)methoxy]-2-oxoethoxy]-imino]acetyl]amino]-4-methyl-2-oxo-1-azetidinesulfonic acid, potassium salt] | 1.6 µg/mL | 12.5 µg/mL | > 100 µg/mL | > 100 µg/mL | 6.3 µg/mL | 100 µg/mL | 6.3 µg/mL | 6.3 µg/mL | 6.3 µg/mL | > 100 µg/mL | 0.4 µg/mL | 50 µg/mL | > 100 µg/mL | 6.3 µg/mL | 1.6 µg/mL | 12.5 µg/mL | 12.5 µg/mL | 25 µg/mL | 6.3 µg/mL | 50 µg/mL | MIC [13]: 50 µg/mL; MIC (Shigella sonnei, 8449): 25 µg/mL; MIC [14]: 25 µg/mL; MIC (Micrococcus luteus, 2495): 1.6 µg/mL; MIC [15]: 0.8 µg/mL
2 | C[C@H]1[C@H](NC(=O)C(=O)c2csc(N)n2)C(=O)N1S(=O)(=O)O [Example 27, (3S-trans)-3-[[(2-Amino-4-thiazolyl)oxoacetyl]-amino]-4-methyl-2-oxo-1-azetidinesulfonic acid, potassium salt] | 6.3 µg/mL | 6.3 µg/mL | 6.3 µg/mL | > 100 µg/mL | 3.1 µg/mL | 6.3 µg/mL | 3.1 µg/mL | 1.6 µg/mL | > 100 µg/mL | > 100 µg/mL | 3.1 µg/mL | 6.3 µg/mL | > 100 µg/mL | > 100 µg/mL | 0.4 µg/mL | > 100 µg/mL | 50 µg/mL | 3.1 µg/mL | 3.1 µg/mL | > 100 µg/mL | MIC [13]: 3.1 µg/mL; MIC (Shigella sonnei, 8449): 3.1 µg/mL; MIC [14]: 3.1 µg/mL; MIC (Micrococcus luteus, 2495): 100 µg/mL; MIC [15]: 12.5 µg/mL
3 | COC1(NC(=O)Cc2ccccc2)C(=O)N(S(=O)(=O)O)C1C (stereo not drawn) [Example 29, (3S-trans)-3-Methoxy-4-methyl-2-oxo-3-[(phenylacetyl)-amino]-1-azetidinesulfonic acid, potassium salt] | > 100 µg/mL | 100 µg/mL | > 100 µg/mL | > 100 µg/mL | 100 µg/mL | > 100 µg/mL | > 100 µg/mL | 100 µg/mL | > 100 µg/mL | > 100 µg/mL | > 100 µg/mL | > 100 µg/mL | > 100 µg/mL | > 100 µg/mL | > 100 µg/mL | > 100 µg/mL | > 100 µg/mL | > 100 µg/mL | > 100 µg/mL | > 100 µg/mL | MIC [13]: > 100 µg/mL; MIC (Shigella sonnei, 8449): > 100 µg/mL; MIC [14]: > 100 µg/mL; MIC (Micrococcus luteus, 2495): > 100 µg/mL; MIC [15]: > 100 µg/mL
